# Results: patent publication US5399543A, “3-[4-(phenylmethoxy)phenyl]-1-substituted-6-haloalkyl-uracil herbicides” (FMC Corporation, priority 1993, dated 1995)
# Legend:
# Blackgrass [1] = test: Postemergence herbicidal activity, blackgrass; format: in vivo, Aloepecurus myosuroides; conditions: Alopecurus myosuroides, post-emergence, 0.3 kg/ha, after 17-21 days, read-out: Postemergence herbicidal activity (% control), Blackgrass
# Procedure: (§1) The 3-[4-(phenylmethoxy)phenyl]-1-substituted-6-haloalkyluracil herbicides of this invention were tested for pre- and postemergence herbicidal activity using a variety of crops and weeds. The test plants included soybean (Glycine max var. Williams), field corn (Zea mays var. Agway 425X), wheat (Triticum aestivum var. Wheaton), morningglory (Ipomea lacunosa or Ipomea hederacea), velvetleaf (Abutilon theophrasti), green foxtail (Setaria viridis), Johnsongrass (Sorghum halepense), blackgrass (Aloepecurus myosuroides), common chickweed (Stellaria media), and common cocklebur (Xanthium pensylvanicum).
# (§2) For preemergence testing, two disposable fiber flats (8 cm×15 cm×25 cm) for each rate of application of each candidate herbicide were filled to an approximate depth of 6.5 cm with steam-sterilized sandy loam soil. The soil was leveled and impressed with a template to provide five evenly spaced furrows 13 cm long and 0.5 cm deep in each flat. Seeds of soybean, wheat, corn, green foxtail, and johnsongrass were planted in the furrows of the first flat, and seeds of velvetleaf, morningglory, common chickweed, cocklebur, and blackgrass were planted in the furrows of the second flat. The five-row template was employed to firmly press the seeds into place. A topping soil of equal portions of sand and sandy loam soil was placed uniformly on top of each flat to a depth of approximately 0.5 cm. Flats for postemergence testing were prepared in the same manner except that they were planted 8-12 days prior to the preemergence flats and were placed in a greenhouse and watered, thus allowing the seeds to germinate and the foliage to develop.
# (§3) In both pre- and postemergence tests, a stock solution of the candidate herbicide was prepared by dissolving 0.27 g of the compound in 20 mL of water/acetone (50/50) containing 0.5% v/v sorbitan monolaurate. For an application rate of 3000 g/ha of herbicide a 10 mL portion of the stock solution was diluted with water/acetone (50/50) to 45 mL.
# (§4) The preemergence flats were initially subjected to a light water spray. The four flats were placed two by two along a conveyor belt (i.e., the two preemergence followed by the two postemergence flats). The conveyor belt fed under a spray nozzle mounted about ten inches above the postemergent foliage. The preemergent flats were elevated on the belt so that the soil surface was at the same level below the spray nozzle as the foliage canopy of the postemergent plants. The spray of herbicidal solution was commenced and once stabilized, the flats were passed under the spray at a speed to receive a coverage equivalent of 1000 L/ha. At this coverage the application rates are those shown in the above table for the individual herbicidal solutions. The preemergence flats were watered immediately thereafter, placed in the greenhouse and watered regularly at the soil surface. The postemergence flats were immediately placed in the greenhouse and not watered until 24 hours after treatment with the test solution. Thereafter they were regularly watered at ground level. After 17-21 days the plants were examined and the phytotoxicity data were recorded.
# (§5) Herbicidal activity data at selected application rates are given for various compounds of this invention in Table 2 and Table 3. The test compounds are identified by numbers which correspond to those in Table 1.
# (§6) Phytotoxicity data were taken as percent control. Percent control was determined by a method similar to the 0 to 100 rating system disclosed in "Research Methods in Weed Science," 2nd ed., B. Truelove, Ed.; Southern Weed Science Society; Auburn University, Auburn, Ala., 1977.
# Corn [2] = test: Postemergence herbicidal activity, corn; format: in vivo, Zea mays var. Agway 425X; conditions: Zea mays, post-emergence, 0.3 kg/ha, after 17-21 days, read-out: Postemergence herbicidal activity (% control), Corn
# Procedure: as §1, §2, §3, §4, §5, §6
# Corn [3] = test: Preemergence herbicidal activity, corn; format: in vivo, Zea mays var. Agway 425X; conditions: Zea mays, pre-emergence, 0.3 kg/ha, after 17-21 days, read-out: Preemergence herbicidal activity (% control), Corn
# Procedure: as §1, §2, §3, §4, §5, §6
# Green foxtail [4] = test: Preemergence herbicidal activity, green foxtail; format: in vivo; conditions: Setaria viridis, pre-emergence, 0.3 kg/ha, after 17-21 days, read-out: Preemergence herbicidal activity (% control), Green foxtail
# Procedure: as §1, §2, §3, §4, §5, §6
# Green foxtail [5] = test: Postemergence herbicidal activity, green foxtail; format: in vivo; conditions: Setaria viridis, post-emergence, 0.3 kg/ha, after 17-21 days, read-out: Postemergence herbicidal activity (% control), Green foxtail
# Procedure: as §1, §2, §3, §4, §5, §6
# Chickweed [6] = test: Postemergence herbicidal activity, chickweed; format: in vivo; conditions: Stellaria media, post-emergence, 0.3 kg/ha, after 17-21 days, read-out: Postemergence herbicidal activity (% control), Chickweed
# Procedure: as §1, §2, §3, §4, §5, §6
# Soybean [7] = test: Preemergence herbicidal activity, soybean; format: in vivo, Glycine max var. Williams; conditions: Glycine max, pre-emergence, 0.3 kg/ha, after 17-21 days, read-out: Preemergence herbicidal activity (% control), Soybean
# Procedure: as §1, §2, §3, §4, §5, §6
# Velvetleaf [8] = test: Preemergence herbicidal activity, velvetleaf; format: in vivo; conditions: Abutilon theophrasti, pre-emergence, 0.3 kg/ha, after 17-21 days, read-out: Preemergence herbicidal activity (% control), Velvetleaf
# Procedure: as §1, §2, §3, §4, §5, §6
# Morningglory [9] = test: Postemergence herbicidal activity, morningglory; format: in vivo, Ipomea lacunosa or Ipomea hederacea; conditions: Ipomoea, post-emergence, 0.3 kg/ha, after 17-21 days, read-out: Postemergence herbicidal activity (% control), Morningglory
# Procedure: as §1, §2, §3, §4, §5, §6
# Wheat [10] = test: Postemergence herbicidal activity, wheat; format: in vivo, Triticum aestivum var. Wheaton; conditions: Triticum aestivum, post-emergence, 0.3 kg/ha, after 17-21 days, read-out: Postemergence herbicidal activity (% control), Wheat
# Procedure: as §1, §2, §3, §4, §5, §6
# Blackgrass [11] = test: Preemergence herbicidal activity, blackgrass; format: in vivo, Aloepecurus myosuroides; conditions: Alopecurus myosuroides, pre-emergence, 0.3 kg/ha, after 17-21 days, read-out: Preemergence herbicidal activity (% control), Blackgrass
# Procedure: as §1, §2, §3, §4, §5, §6
# Johnsongrass [12] = test: Preemergence herbicidal activity, johnsongrass; format: in vivo; conditions: Sorghum halepense, pre-emergence, 0.3 kg/ha, after 17-21 days, read-out: Preemergence herbicidal activity (% control), Johnsongrass
# Procedure: as §1, §2, §3, §4, §5, §6
# Chickweed [13] = test: Preemergence herbicidal activity, chickweed; format: in vivo; conditions: Stellaria media, pre-emergence, 0.3 kg/ha, after 17-21 days, read-out: Preemergence herbicidal activity (% control), Chickweed
# Procedure: as §1, §2, §3, §4, §5, §6
# Cocklebur [14] = test: Postemergence herbicidal activity, cocklebur; format: in vivo, Xanthium pensylvanicum; conditions: Xanthium strumarium, post-emergence, 0.3 kg/ha, after 17-21 days, read-out: Postemergence herbicidal activity (% control), Cocklebur
# Procedure: as §1, §2, §3, §4, §5, §6
# Cocklebur [15] = test: Preemergence herbicidal activity, cocklebur; format: in vivo, Xanthium pensylvanicum; conditions: Xanthium strumarium, pre-emergence, 0.3 kg/ha, after 17-21 days, read-out: Preemergence herbicidal activity (% control), Cocklebur
# Procedure: as §1, §2, §3, §4, §5, §6
# Morningglory [16] = test: Preemergence herbicidal activity, morningglory; format: in vivo, Ipomea lacunosa or Ipomea hederacea; conditions: Ipomoea, pre-emergence, 0.3 kg/ha, after 17-21 days, read-out: Preemergence herbicidal activity (% control), Morningglory
# Procedure: as §1, §2, §3, §4, §5, §6
# Soybean [17] = test: Postemergence herbicidal activity, soybean; format: in vivo, Glycine max var. Williams; conditions: Glycine max, post-emergence, 0.3 kg/ha, after 17-21 days, read-out: Postemergence herbicidal activity (% control), Soybean
# Procedure: as §1, §2, §3, §4, §5, §6
# Velvetleaf [18] = test: Postemergence herbicidal activity, velvetleaf; format: in vivo; conditions: Abutilon theophrasti, post-emergence, 0.3 kg/ha, after 17-21 days, read-out: Postemergence herbicidal activity (% control), Velvetleaf
# Procedure: as §1, §2, §3, §4, §5, §6
# Johnsongrass [19] = test: Postemergence herbicidal activity, johnsongrass; format: in vivo; conditions: Sorghum halepense, post-emergence, 0.3 kg/ha, after 17-21 days, read-out: Postemergence herbicidal activity (% control), Johnsongrass
# Procedure: as §1, §2, §3, §4, §5, §6
# Wheat [20] = test: Preemergence herbicidal activity, wheat; format: in vivo, Triticum aestivum var. Wheaton; conditions: Triticum aestivum, pre-emergence, 0.3 kg/ha, after 17-21 days, read-out: Preemergence herbicidal activity (% control), Wheat
# Procedure: as §1, §2, §3, §4, §5, §6
SMILES,activity at 300 g/ha (Blackgrass [1]),activity at 300 g/ha (Corn [2]),activity at 300 g/ha (Corn [3]),activity at 300 g/ha (Green foxtail [4]),activity at 300 g/ha (Green foxtail [5]),activity at 300 g/ha (Chickweed [6]),activity at 300 g/ha (Soybean [7]),activity at 300 g/ha (Velvetleaf [8]),activity at 300 g/ha (Morningglory [9]),activity at 300 g/ha (Wheat [10]),activity at 300 g/ha (Blackgrass [11]),activity at 300 g/ha (Johnsongrass [12]),activity at 300 g/ha (Chickweed [13]),activity at 300 g/ha (Cocklebur [14]),activity at 300 g/ha (Cocklebur [15]),activity at 300 g/ha (Morningglory [16]),activity at 300 g/ha (Soybean [17]),activity at 300 g/ha (Velvetleaf [18]),activity at 300 g/ha (Johnsongrass [19]),activity at 300 g/ha (Wheat [20])
"Cn1c(C(F)(F)F)cc(=O)n(-c2ccc(OCc3ccc(Cl)cc3)cc2F)c1=O [Compound 10, 3-[4-(4-Chlorophenylmethoxy)-2-fluorophenyl]-1-methyl-6-trifluoromethyluracil]",40%,50%,20%,100%,100%,100%,100%,100%,100%,10%,50%,95%,100%,100%,100%,100%,95%,100%,95%,20%
Cn1c(C(F)(F)F)cc(=O)n(-c2ccc(OCc3ccc(F)cc3)cc2F)c1=O [Compound 11],0%,70%,85%,100%,100%,80%,85%,100%,100%,20%,20%,95%,100%,100%,90%,100%,80%,100%,100%,20%
Cc1cc(OCc2ccccc2)ccc1-n1c(=O)cc(C(F)(F)F)n(C)c1=O [Compound 12],0%,0%,40%,80%,50%,0%,10%,60%,20%,0%,0%,60%,0%,0%,0%,10%,20%,30%,0%,0%
Cc1cc(OCc2ccc(Cl)cc2)ccc1-n1c(=O)cc(C(F)(F)F)n(C)c1=O [Compound 13],20%,40%,30%,100%,80%,30%,40%,100%,100%,0%,30%,90%,10%,90%,0%,60%,30%,100%,20%,0%
Cn1c(C(F)(F)F)cc(=O)n(-c2ccc(OCc3ccc(C(F)(F)F)cc3)cc2)c1=O [Compound 22],30%,20%,30%,100%,90%,15%,90%,100%,95%,20%,15%,70%,100%,40%,50%,90%,50%,40%,80%,0%
COc1ccccc1COc1ccc(-n2c(=O)cc(C(F)(F)F)n(C)c2=O)cc1 [Compound 40],10%,50%,75%,100%,100%,15%,50%,100%,90%,20%,30%,100%,80%,100%,20%,100%,90%,100%,90%,20%
Cn1c(C(F)(F)F)cc(=O)n(-c2ccc(OCc3ccc(Cl)c(Cl)c3)cc2)c1=O [Compound 41],0%,25%,0%,95%,45%,85%,40%,100%,100%,0%,20%,20%,95%,100%,20%,80%,85%,100%,35%,0%
